The text below walks through data of US7781417B2, “Cyclodextrin dimers and derivatives thereof, methods for preparing them and their use, in particular, for the solubilizing pharmacologically active substances” (Centre National de la Recherche Scientifique, priority 2003, dated 2010).

The target in data set [1] is mannose-specific lectin concanavalin A (ConA) (Canavalia ensiformis, UniProt P02866). Kind of data set: ELLA (Enzyme-Linked Lectin Assay): inhibition of the combination of yeast mannan and horse-radish peroxidase-labelled ConA. Particulars: for Relative affinity / Relative molar affinity: relative to Me-α-D-Glcp = 1. The class given is binding. As for the experimental part: The affinity of the ureido-, thioureido-, ureidocysteaminyl- and thioureidocysteaminyl-cyclodextrin dimers of the invention which incorporate glucide substituents for specific membrane lectins in vitro is evaluated according to the ELLA (“Enzyme-Linked Lectin Assay”) protocol. Numerous examples of application of this protocol can be found in the article by J. J. Lundquist and E. J. Toon in Chem. Rev. 2002, 102, pp. 555-578. This technique measures the ability of a soluble mono- or oligosaccharide ligand to inhibit the association between a complementary lectin and another reference ligand bound to a plastic support microplate. Thus, the ureido-, thioureido-, ureidocysteaminyl- and thioureidocysteaminyl-cyclodextrin dimers carrying α-D-mannopyranosyl substituents are recognized by concanavalin A or by the mannose-specific lectin of the macrophages, the derivatives with β-lactosyl substituents are recognized by the lactose-specific lectin of Arachys hypogaea or hepatocytes, and the derivatives comprising the tetrasaccharide sialyl-Lewis X substituent are recognized by the selectins of the endothelium involved in the inflammation method.
The affinity of compounds no. 5 to 8 for the mannose-specific lectin concanavalin A (ConA) was evaluated according to the test ELLA protocol. The concentration of compounds no. […] The IC50 values are inversely proportional to the respective affinities.
The microtitration plate cells (Nunc-Immuno™ plates MaxiSorp™) are charged with 100 μl of a yeast mannan stock solution (Sigma, […]) in a saline phosphate buffer solution (PBS; pH 7.3 containing Ca^2+ 0.1 mM and Mn^2+ 0.1 mM) overnight at ambient temperature. The cells are washed (3×300 μl) with a buffer solution containing 0.05% (v/v) Tween 20 (PBTS). This washing protocol is repeated after each incubation during the test. A bovine serum albumin solution (BSA, 1%) in PBS (150 μg/cell) is then added to the cells, followed by incubation for 1 h at 37° C. and then washing.
To determine the optimum lectin concentration for the inhibition studies, 100 μl of a series of Con A solutions labelled with 10^−1 to 10^−5 mg.ml^−1 horse-radish peroxidase in PBS is added to the cells charged with the mannan, followed by treating as indicated above. After incubation at 37° C. for 1 hour, the plates are washed (PBST) and a solution (50 μl) of the diammonium salt of 2,2′-azinobis(3-ethylbenzothiazoline-6-sulphonic) acid (ABTS, 1 mg in 4 ml) in citrate buffer is added (0.2 M; pH 4.0 with 0.015% of oxygenated water). The reaction is stopped after 20 minutes by adding 50 μl/cell sulphuric acid 1 M and the absorbances are measured at 415 nm using an ELISA reader. The sample cells contain the citrate-phosphate buffer. The concentration of lectin marked with peroxidase giving an absorbance value between 0.8 and 1.0 (typically between 10^−2 and 10^−3 mg/ml^−1) was used in the inhibition assays.
For inhibition assays, stock solutions of compounds no. 5 to 8 were used at a concentration of 5 to 7 mg/ml^−1 in PBS. In a series of experiments, ConA marked with horse-radish peroxidase of suitable concentration as indicated above (60 μl/cell) is added to the solutions of each compound (60 μl/cell) in PBS, double-diluted in sequence, in a Nunclon™(Delta) microtitration plate which is incubated at 37° C. for 1 hour. The solutions (100 μl/cell) are then transferred to a microtitration plate charged with mannan and treated as indicated above, then being incubated at 37° C. for 1 hour. The cells are washed (PBST) and ABTS solution added (50 μl/cell). After 20 minutes, the reaction is stopped (sulphuric acid) and the absorbances are measured.
The inhibition percentage is calculated by the formula: […]

Data set [2] is described as follows: solubility in water of the cyclodextrin (dimer) derivative. It counts as physicochemical.
Data set [3] can be described thus: inclusion of Taxotere into the cyclodextrin dimer: solubility of Taxotere in sterile water. The class given is physicochemical. As for the experimental part:
Taxotere in the pure state is used to start with and 8.3 mg (9.7 μmol) of this product is dispersed in 1 ml of a solution containing 10 mmol.l^−1 of compound no. 3 in sterile water, then the obtained suspension is stirred at 70° C. until a clear solution is obtained which signals the complexation of the Taxotere.
Taxotere in the pure state is used to start with and 6.6 mg (7.7 μmol) of this product is dispersed in 1 ml of a solution containing 8 mmol/l^−1 of compound no. 6 in sterile water, then the obtained suspension is stirred at 70° C. until a clear solution is obtained which signals the complexation of the Taxotere.
Taxotere in the pure state is used to start with and 5.8 mg ([…]) of this product is dispersed in 1 ml of a solution containing 7 mmol/l^−1 of compound no. 6 in sterile water, then the obtained suspension is stirred at 70° C. until a clear solution is obtained which signals the complexation of the Taxotere.

[4] abbreviates: inhibition of ConA-HRP binding to yeast mannan fixed to microtitration plate, average of three independent experiments, read-out: IC50.

“And” between values parts separate entries of the source, which are not always exact repeats. Equal entries are not always repeated. Where two headings read alike, the source gives them in different places.

As a reminder, the IC50 is the concentration that gives 50% inhibition. Consider `CO[C@H]1O[C@H](CO)[C@@H](O)[C@H](O)[C@H]1O` [Me-α-D-Glcp, methyl-α-D-glucopyranoside, reference compound], for which, in data set [1], the IC50 was 865 µM, the Relative affinity came out at 1 and the Relative molar affinity is listed as 1.
In the case of `OC[C@H]1O[C@@H]2O[C@H]3[C@H](O)[C@@H](O)[C@@H](O[C@H]4[C@H](O)[C@@H](O)[C@@H](O[C@H]5[C@H](O)[C@@H](O)[C@@H](O[C@H]6[C@H](O)[C@@H](O)[C@@H](O[C@H]7[C@H](O)[C@@H](O)[C@@H](O[C@H]8[C@H](O)[C@@H](O)[C@@H](O[C@H]1[C@H](O)[C@H]2O)O[C@@H]8CO)O[C@@H]7CO)O[C@@H]6CO)O[C@@H]5CNC(=S)NCCN(CCNC(=S)NC[C@H]1O[C@@H]2O[C@H]5[C@H](O)[C@@H](O)[C@@H](O[C@H]6[C@H](O)[C@@H](O)[C@@H](O[C@H]7[C@H](O)[C@@H](O)[C@@H](O[C@H]8[C@H](O)[C@@H](O)[C@@H](O[C@H]9[C@H](O)[C@@H](O)[C@@H](O[C@H]%10[C@H](O)[C@@H](O)[C@@H](O[C@H]1[C@H](O)[C@H]2O)O[C@@H]%10CO)O[C@@H]9CO)O[C@@H]8CO)O[C@@H]7CO)O[C@@H]6CO)O[C@@H]5CO)CCNC(=S)Nc1ccccc1)O[C@@H]4CO)O[C@@H]3CO` [compound no. 4, bis[2-[N′-(6^I-deoxycyclomaltoheptaos-6^I-yl)thioureido]ethyl] 2-(N′-phenylthioureido)ethylamine], in data set [2], the solubility in water is 115 g·L^−1 and 62 mmol·L^−1.
For “bis[2-[N′-(6^I-deoxycyclomaltoheptaos-6^I-yl)thioureido]ethyl] 2- [N′-(α-D-mannopyranosyl)thioureido]ethylamine [compound no. 5]”, the IC50 in data set [1] (setting [4]) came to 1290 µM. In addition, in data set [1], the Relative affinity was determined as 0.67 and the Relative molar affinity amounted to 0.67.
For the molecule “bis[2-[N′-(6^I-deoxycyclomaltoheptaos-6^I-yl)thioureido]ethyl] 2-(N′-methylthioureido)ethylamine [compound no. 3]”, the “solubility of the Taxotere in a solution of the compound” value in data set [3] (10 mmol.l^−1 of compound in sterile water, stirred at 70° C. until clear) was 8300 µg/mL. For the same molecule, the “stability of the Taxotere complex in solution once formed” value in data set [3] (ambient temperature, after complexation at 70° C.) is listed as “remains in solution at ambient temperature”.
As for “bis[2-[N′-(6^I-deoxycyclomaltoheptaos-6^I-yl)thioureido]ethyl] 2-[N′-[2-[bis[2-[N′-(α-D-mannopyranosyl)thioureido]ethyl] amino]ethyl]thioureido]ethyl amine [compound no. 7]”, the IC50 in data set [1] (setting [4]) was 265 µM. In addition, in data set [1], the Relative affinity is given as 3.3 and the Relative molar affinity turned out to be 1.1.
Take “bis[2-[N′-(6^I-deoxycyclomaltoheptaos-6^I-yl)thioureido]ethyl] 2-[N′-[2-[bis[2-[N′-[tris(α-D-mannopyranosyloxymethyl) methyl]thioureido]ethyl] amino]ethyl]thioureido]ethylamine [compound no. 8]”: in data set [1] (setting [4]), the IC50 was determined as 49 µM. In addition, in data set [1], the Relative affinity is given as 17.7 and the Relative molar affinity was determined as 2.9. In addition, the “times more effectively recognized by ConA compared with the monovalent cyclodextrin dimer derivative, compound no. 5” value in data set [1] (versus compound no. 5) was “up to 25 times”.
Take “bis[2-[N′-(6^I-deoxycyclomaltoheptaos-6^I-yl)thioureido]ethyl] 2-[N′-[tris(2,3,4,6-tetra-O-acetyl-α-D-mannopyranosyloxy-methyl)methyl]thioureido]lethylamine [compound no. 6]”: in data set [1] (setting [4]), the concentration for half-maximal inhibition (IC50) stood at 1130 µM. In data set [1], the Relative affinity is 0.76 and the Relative molar affinity is given as 0.38. Further, the “stability of the Taxotere complex in solution once formed” value in data set [3] is recorded as “remains in solution at ambient temperature”.
